The subject of the assay is H1650 cells. Briefly: CellTiterGlo (CTG) cell viability, 3D, 120 h, H1650 (Example 8). In kind it is cell-based, human. The method, then:
H1650 cells were cultivated in RPMI supplemented with 10% heat inactivated fetal bovine serum, penicillin (100 IU/ml), streptomycin (100 μg/ml) and L-glutamine (2 mM). Cell lines were cultured at 37° C. in a humidified atmosphere containing 5% 002. Cells were seeded in 96 microwell round bottom plates (96 microwell Low attachment plates , Costar reference 7007) and exposed to the payloads or ADCs for 120 h (serially diluted; 9 concentrations each, duplicates). Effects of payloads or ADCs on cell viability were assessed after 5 days of incubation at 37° C./5% CO2 by quantification of cellular ATP levels using CellTiterGlo at 75 μL reagent/well. All the conditions were tested in duplicates. Luminescence was quantified on a multipurpose plate reader. IC50S were calculated using standard four-parametric curve fitting. […] Each experiment was performed at least twice, with results being reproducible.

The mark [1] stands for this setting: H1650 3D, experiment n1, read-out: H1650 3D CTG IC50 n1.
Where [2] appears, read: H1650 3D, experiment n2, read-out: H1650 3D CTG IC50 n2.
Where [3] appears, read: H1650 3D, mean of n1 and n2, read-out: H1650 3D CTG IC50 Mean of n1 and n2.
Where [4] appears, read: Homo sapiens, NCI-H1650, H1650 3D, experiment n1, read-out: H1650 3D CTG IC50 n1.
The mark [5] stands for this setting: Homo sapiens, NCI-H1650, H1650 3D, experiment n2, read-out: H1650 3D CTG IC50 n2.
[6] abbreviates: Homo sapiens, NCI-H1650, H1650 3D, mean of n1 and n2, read-out: H1650 3D CTG IC50 Mean of n1 and n2.

Structures are written as SMILES. Where two headings read alike, the source gives them in different places.

One may read the IC50 as the midpoint of a concentration-inhibition curve. Take `Cc1cc(N(C)c2nc(C(=O)O)c(CCCOc3ccc(C#CC[N+](C)(C)Cc4ccc(NC(=O)[C@H](CCCNC(N)=O)NC(=O)[C@@H](NC(=O)CCOCCN5C(=O)CC(C)C5=O)C(C)C)cc4)cc3F)s2)nnc1Nc1nc2ccccc2s1` (stereo partly drawn) [Ab C - L9A-P2]: the IC50 reads like this: under setting [1], 4.2 nM; under setting [2], 7 nM; under setting [3], 5.6 nM.
Consider `Cc1c(Nc2nc3ccccc3s2)nnc2c1CCCN2c1nc(C(=O)[O-])c(CCCOc2ccc(C#CCN3CC[N+](C)(Cc4ccc(NC(=O)[C@H](CCCNC(N)=O)NC(=O)[C@@H](NC(=O)CCOCCN5C(=O)CC(C)C5=O)C(C)C)cc4)CC3)cc2F)s1` (stereo partly drawn) [Ab C - L9A-P10], for which the IC50 under setting [1] turned out to be 0.3 nM, the IC50 under setting [2] was determined as 0.5 nM and the half-inhibitory concentration (IC50) under setting [3] worked out at 0.4 nM.
Turning to `Cc1cc(N(C)c2nc(C(=O)[O-])c(CCCOc3ccc(C#CC[N+](C)(C)Cc4ccc(NC(=O)[C@H](C)NC(=O)[C@@H](NC(=O)CCOCCN5C(=O)CC(C)C5=O)C(C)C)cc4CC[C@@H]4O[C@H](C(=O)O)[C@@H](O)[C@H](O)[C@H]4O)cc3F)s2)nnc1Nc1nc2ccccc2s1` (stereo partly drawn) [Ab C - L106A-P2], the IC50 runs as follows: under setting [1], 1 nM; under setting [2], 0.7 nM; under setting [3], 0.85 nM.
The corresponding values for `Cc1cc(N(C)c2nc(C(=O)[O-])c(CCCOc3ccc(C#CC[N+](C)(C)Cc4ccc(O[C@@H]5O[C@H](C(=O)O)[C@@H](O)[C@H](O)[C@H]5O)c(NC(=O)CCNC(=O)CCOCCN5C(=O)CC(C)C5=O)c4)cc3F)s2)nnc1Nc1nc2ccccc2s1` (stereo partly drawn) [Ab C - L108A-P2] are 2.1 nM, 0.97 nM and 1.54 nM.
Regarding `CNCC#Cc1ccc(OCCCc2sc(N3CCCc4c3nnc(Nc3nc5ccccc5s3)c4C)nc2C(=O)O)c(F)c1` [P3, 2-{3-[(1,3-Benzothiazol-2-yl)amino]-4-methyl-5H,6H,7H,8H-pyrido[2,3-c]pyridazin-8-yl}-5-(3-{2-fluoro-4-[3-(methylamino)prop-1-yn-1-yl]phenoxy}propyl)-1,3-thiazole-4-carboxylic acid], the IC50 reads like this: under setting [4], 4 nM; under setting [5], 28 nM; under setting [6], 16 nM.
As for `Cc1cc(N(C)c2nc(C(=O)O)c(CCCOc3ccc(C#CC(C)N(C)C)cc3F)s2)nnc1Nc1nc2ccccc2s1` (stereo not drawn) [P11, 2-[[6-(1,3-Benzothiazol-2-ylamino)-5-methyl-pyridazin-3-yl]-methyl-amino]-5-[3-[4-[3-(dimethylamino)but-1-ynyl]-2-fluoro-phenoxy]propyl]thiazole-4-carboxylic acid], the IC50 worked out at 0.7 nM under setting [4], 1.2 nM under setting [5] and 0.95 nM under setting [6].
Taken in the same sequence, the figures for `Cc1c(Nc2nc3ccccc3s2)nnc2c1CCCN2c1nc(C(=O)O)c(CCCOc2ccc(C#CCNCCN(C)C)cc2F)s1` [P12, 2-[3-(1,3-Benzothiazol-2-ylamino)-4-methyl-6,7-dihydro-5H-pyrido[2,3-c]pyridazin-8-yl]-5-[3-[4-[3-[2-(dimethylamino)ethylamino]prop-1-ynyl]-2-fluoro-phenoxy]propyl]thiazole-4-carboxylic acid] were 0.95 nM, 2 nM and 1.48 nM.
Turning to `CCN(CC)CC#Cc1ccc(OCCCc2sc(N3CCCc4c3nnc(Nc3nc5ccccc5s3)c4C)nc2C(=O)O)c(F)c1` [P14, 2-[3-(1,3-Benzothiazol-2-ylamino)-4-methyl-6,7-dihydro-5H-pyrido[2,3-c]pyridazin-8-yl]-5-[3-[4-[3-(diethylamino)prop-1-ynyl]-2-fluoro-phenoxy]propyl]thiazole-4-carboxylic acid], the IC50 is, setting by setting: under setting [4], 1.9 nM; under setting [5], 5.4 nM; under setting [6], 3.65 nM.
Regarding `Cc1c(Nc2nc3ccccc3s2)nnc2c1CCCN2c1nc(C(=O)O)c(CCCOc2ccc(C#CCN3CCC(F)(F)CC3)cc2F)s1` [P15, 2-{3-[(1,3-Benzothiazol-2-yl)amino]-4-methyl-5H,6H,7H,8H-pyrido[2,3-c]pyridazin-8-yl}-5-(3-{4-[3-(4,4-difluoropiperidin-1-yl)prop-1-yn-1-yl]-2-fluorophenoxy}propyl)-1,3-thiazole-4-carboxylic acid], the IC50 by setting is: under setting [4], 0.98 nM; under setting [5], 1.2 nM; under setting [6], 1.09 nM.
Regarding `CNCCOC1Cc2c(nnc(Nc3nc4ccccc4s3)c2C)N(c2nc(C(=O)O)c(CCCOc3ccc(C#CCN(C)C)cc3F)s2)C1` (stereo not drawn) [P16, 2-{3-[(1,3-Benzothiazol-2-yl)amino]-4-methyl-6-[2-(methylamino)ethoxy]-5H,6H,7H,8H-pyrido[2,3-c]pyridazin-8-yl}-5-(3-{4-[3-(dimethylamino)prop-1-yn-1-yl]-2-fluorophenoxy}propyl)-1,3-thiazole-4-carboxylic acid], the IC50 under setting [4] stood at 6.1 nM, the half-maximal inhibitory concentration (IC50) under setting [5] was 6.2 nM and the IC50 under setting [6] was found to be 6.15 nM.
For the molecule `Cc1c(Nc2nc3ccccc3s2)nnc2c1CCCN2c1nc(C(=O)O)c(CCCOc2ccc(C#CCN3CCCCC3)cc2F)s1` [P18, 2-[3-(1,3-Benzothiazol-2-ylamino)-4-methyl-6,7-dihydro-5H-pyrido[2,3-c]pyridazin-8-yl]-5-[3-[2-fluoro-4-[3-(1-piperidyl)prop-1-ynyl]phenoxy]propyl]thiazole-4-carboxylic acid], the IC50 is, setting by setting: under setting [4], 1.8 nM; under setting [5], 3.5 nM; under setting [6], 2.65 nM.
Take `Cc1c(Nc2nc3ccccc3s2)nnc2c1CCCN2c1ccc(-c2cnn(C[C@]34C[C@]5(C)C[C@](C)(C3)C[C@@](OCCNCC(CO)CO)(C5)C4)c2C)c(C(=O)O)n1` [P23, 6-[3-(1,3-benzothiazol-2-ylamino)-4-methyl-6,7-dihydro-5H-pyrido[2,3-c]pyridazin-8-yl]-3-[1-[[3-[2-[[3-hydroxy-2-(hydroxymethyl)propyl]amino]ethoxy]-5,7-dimethyl-1-adamantyl]methyl]-5-methyl-pyrazol-4-yl]pyridine-2-carboxylic acid]: the IC50 reads like this: under setting [4], 4 nM; under setting [5], 2.8 nM; under setting [6], 3.4 nM.
With `Cc1c(Nc2nc3ccccc3s2)nnc2c1CCCN2c1ccc(-c2cnn(C[C@]34C[C@]5(C)C[C@](C)(C3)C[C@@](OCCNC(CO)CO)(C5)C4)c2C)c(C(=O)O)n1` [P24, 6-[3-(1,3-benzothiazol-2-ylamino)-4-methyl-6,7-dihydro-5H-pyrido[2,3-c]pyridazin-8-yl]-3-[1-[[3-[2-[[2-hydroxy-1-(hydroxymethyl)ethyl]amino]ethoxy]-5,7-dimethyl-1-adamantyl]methyl]-5-methyl-pyrazol-4-yl]pyridine-2-carboxylic acid], the IC50 turned out to be 2.1 nM under setting [4], 1.8 nM under setting [5] and 1.95 nM under setting [6].
The corresponding values for `Cc1cc(N(C)c2ccc(-c3cnn(C[C@]45C[C@]6(C)C[C@](C)(C4)C[C@@](OCCNCCCO)(C6)C5)c3C)c(C(=O)O)n2)nnc1Nc1nc2ccccc2s1` [P26, 6-[[6-(1,3-benzothiazol-2-ylamino)-5-methyl-pyridazin-3-yl]-methyl-amino]-3-[1-[[3-[2-(3-hydroxypropylamino)ethoxy]-5,7-dimethyl-1-adamantyl]methyl]-5-methyl-pyrazol-4-yl]pyridine-2-carboxylic acid] are 0.68 nM, 0.69 nM and 0.69 nM.
